The values below come from US20080255031A1, “METHOD FOR ENHANCING INSULIN SECRETION” (priority 2007, published 2008).

For one data set, the system named is normal SD rats. In words: Insulin levels during intravenous glucose tolerance test (IVGTT) in normal SD rats. It is filed as in vivo, rat. Particulars: 15 mg/kg, 30 minutes prior to glucose. The method, then: Each rat was subjected to an IVGTT according to the method of […] et al, Metabolism 42, (1):1-6, 1993. The rats were fasted overnight before administration of the test. One group of eleven rats was given only saline prior to glucose load while the second group of seven rats was given ranolazine prior to glucose load. Glucose was administered at time zero while ranolazine was administered 30 minutes prior to glucose at a dose of 15 mg/kg of body weight. Then, the insulin concentrations in the blood were measured at -30, 0, 2, 4, 7, 15 and 30 minutes. […] The procedure used was that described in Example 2 above.

A further data set deals with T1, β1-adrenergic receptors (Rattus norvegicus, UniProt P18090).
T1 construct: membranes prepared from rat ventricle and guinea-pig lung, respectively; from tissue; host or cells: rat ventricle membranes
T1 sequence (P18090 whole entry): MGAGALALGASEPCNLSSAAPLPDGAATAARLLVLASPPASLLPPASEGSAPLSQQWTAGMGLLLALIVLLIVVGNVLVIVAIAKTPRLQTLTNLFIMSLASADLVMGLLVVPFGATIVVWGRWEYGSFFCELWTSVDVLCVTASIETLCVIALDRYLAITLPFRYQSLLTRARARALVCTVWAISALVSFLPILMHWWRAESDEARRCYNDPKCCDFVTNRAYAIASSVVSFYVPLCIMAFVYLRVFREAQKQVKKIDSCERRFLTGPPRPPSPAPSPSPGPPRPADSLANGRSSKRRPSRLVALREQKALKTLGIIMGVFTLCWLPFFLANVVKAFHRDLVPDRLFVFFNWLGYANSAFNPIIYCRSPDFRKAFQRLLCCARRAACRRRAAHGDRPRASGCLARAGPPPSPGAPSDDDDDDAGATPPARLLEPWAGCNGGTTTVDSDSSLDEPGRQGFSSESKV
As to the kind of experiment: Radioligand binding to β1-ARs, membranes from rat ventricle. The procedure: (§1) The objective of this example is to present the affinities and potencies of ranolazine and its S- and R-enantiomers for β1 and β2-adrenergic receptors (ARs) in various tissues and cell lines. Using radioligand binding techniques, competition of the compounds for specific radioligand binding to β1- and β2-ARs was determined using membranes prepared from rat ventricle and guinea-pig lung, respectively.

The target in a further data set is T2, β2-adrenergic receptors (Cavia porcellus, UniProt Q8K4Z4).
T2 construct: membranes prepared from rat ventricle and guinea-pig lung, respectively; from tissue; host or cells: guinea-pig lung membranes
T2 sequence (Q8K4Z4 whole entry): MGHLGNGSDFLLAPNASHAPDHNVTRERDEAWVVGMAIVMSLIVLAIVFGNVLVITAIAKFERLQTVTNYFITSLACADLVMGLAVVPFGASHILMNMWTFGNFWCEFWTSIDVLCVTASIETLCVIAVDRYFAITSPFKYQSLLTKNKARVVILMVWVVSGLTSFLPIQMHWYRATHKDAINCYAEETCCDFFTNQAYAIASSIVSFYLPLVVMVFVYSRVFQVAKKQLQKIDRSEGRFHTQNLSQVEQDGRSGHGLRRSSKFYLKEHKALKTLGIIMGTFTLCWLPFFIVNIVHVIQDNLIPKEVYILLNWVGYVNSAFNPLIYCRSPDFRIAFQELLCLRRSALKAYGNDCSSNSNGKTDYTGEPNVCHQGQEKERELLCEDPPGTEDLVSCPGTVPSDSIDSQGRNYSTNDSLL
As to the kind of experiment: Radioligand binding to β2-ARs, membranes from guinea-pig lung. The method, then:
as §1

Another data set deals with T3, β1-ARs (Rattus norvegicus, UniProt P18090).
T3 construct: rat C6 glioma cells (expressing mostly β1-ARS); endogenous in cells; host or cells: rat C6 glioma cells
T3 sequence (P18090 whole entry): as the sequence (P18090 whole entry) above
In words: Isoproterenol-induced cAMP accumulation in rat C6 glioma cells (mostly β1-ARs). It counts as cell-based. The note with it: read-out: KB (Schild), β1-ARs. The procedure:
(§2) The effect of ranolazine and its S- and R-enantiomers on cAMP accumulations in rat C6 glioma cells (expressing mostly β1-ARS) and DDT1 MF-2 hamster smooth muscles cells (expressing mostly β2-ARs) were determined. […] However, in the presence of the compounds, the concentration-response curve for the isoproterenol-induced increase in cAMP was shifted to the right with no apparent reduction in the maximal responses, indication that these compounds are competitive antagonists of β1- and β2-ARs. Using the Schild equations for multiple concentrations of the antagonist (ranolazine) or for a single concentration of the enantiomers, the KB values for ranolazine and its S- and R-enantiomers were 9.7, 8.0, and >50 μM (for β1-ARS) and 12.2, 9.0, and >50 μM (for β2-ARs). In summary, ranolazine and its S-enantiomer are competitive antagonists of β1 and β2-ARS with the S-enantiomer having the highest binding affinities of all.

In the next data set the target is T4, β2-ARs (Mesocricetus auratus, UniProt P04274).
T4 construct: DDT1 MF-2 hamster smooth muscles cells (expressing mostly β2-ARs); endogenous in cells; host or cells: DDT1 MF-2 hamster smooth muscle cells
T4 sequence (P04274 whole entry): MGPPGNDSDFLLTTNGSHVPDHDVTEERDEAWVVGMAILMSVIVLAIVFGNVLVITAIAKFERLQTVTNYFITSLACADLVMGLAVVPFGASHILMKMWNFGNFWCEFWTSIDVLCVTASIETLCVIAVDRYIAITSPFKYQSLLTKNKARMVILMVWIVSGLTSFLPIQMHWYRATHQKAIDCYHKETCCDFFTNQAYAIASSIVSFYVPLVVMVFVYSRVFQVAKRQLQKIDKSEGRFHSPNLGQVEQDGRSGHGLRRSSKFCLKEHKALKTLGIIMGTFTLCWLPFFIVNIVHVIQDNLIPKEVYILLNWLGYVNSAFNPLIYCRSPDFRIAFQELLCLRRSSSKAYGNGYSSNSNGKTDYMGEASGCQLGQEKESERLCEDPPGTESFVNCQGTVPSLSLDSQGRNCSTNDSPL
As to the kind of experiment: Isoproterenol-induced cAMP accumulation in DDT1 MF-2 hamster smooth muscle cells (mostly β2-ARs). It counts as cell-based. Particulars: read-out: KB (Schild), β2-ARs. The method, then: as §2

The subject of data set [1] is Female rabbit isolated hearts. As to the kind of experiment: LV monophasic action potential duration (MAPD90) in female rabbit isolated hearts. The note with it: for EC50: Oryctolagus cuniculus. The procedure:
The objective of this example is to present the effects of ranolazine and the R- and S-enantiomers of ranolazine on left ventricular monophasic action potential duration (LV MAPD), regional LV dispersion of MAPD (apex-base) and arrhythmogenesis. Female rabbit isolated hearts were perfused with modified K-H solution and paced at a constant rate of 1 Hz after surgical-induced complete atrioventricular block. LV MAPs from the base and apex were measured using contact MAP electrodes.
Each animal was sedated using 6 mg/kg xylazine i.m. and 40 mg/kg ketamine i.m. and then anesthetized by a “cocktail” (ketamine 15 mg/kg+xylazine 4 mg/kg in 1.5 mL saline) i.v. via the marginal ear vein. The thorax was quickly opened. The heart was excised and placed in a modified Krebs-Henseleit (K-H) solution at room temperature. The K-H solution contained (in mmol/L): NaCl 118, KCl 2.8, KH2PO4 1.2, CaCl2 2.5, MgSO4 0.5, pyruvate 2.0, glucose 5.5, Na2EDTA 0.57 and NaHCO3 25. The solution was continuously gassed with 95% O2 and 5% CO2, and its pH was adjusted to 7.4. The aorta was rapidly catheterized and the heart was perfused by the method of Langendorff with K-H solution warmed to 36-36.5° C. at a rate of 20 mL/min with a roller pump (Gilson Minipuls3, Middleton, Wis.). Perfusion pressure was measured (with a Biopac MP 150 pressure transducer, Goleta, Calif.) from a side port of the aortic catheter. To facilitate exit of fluid from the chamber of the left ventricle (LV), the leaflets of the mitral valve were trimmed with fine spring-handled scissors. The right atrial wall was partially removed for AV node ablation to block AV conduction.
Complete AV block was induced by surgical ablation (heated) of AV nodal area. […] A bipolar Teflon-coated electrode was placed on the right ventricular septum to pace the heart. Electrical stimuli 3 msec in width and 3-fold threshold amplitude were delivered to the pacing electrode at a frequency of 1 Hz using a Grass S48 stimulator (W. Warwick, R.I.).
After initiation of ventricular pacing, a 30-40 min delay was allowed for heart rhythm and perfusion pressure to achieve a steady state, an essential experimental condition for recording a good quality monophasic action potential (MAP).
Monophasic action potentials (MAP) and ECG electrodes from Harvard Apparatus Inc. (Holliston, Mass.) were used to record left ventricular MAPs and bipolar ECG. Two MAP electrodes were placed on the epicardial ventricular free wall below the level of atrial-ventricular valves to record basal MAP and apex to record apical MAP signals, respectively. MAP electrodes were pressure-contact Ag—AgCl electrodes attached to a circular holder with springs to maintain the electrodes' contact with the LV epicardial surface. […] Signals were saved on a computer hard disk for subsequent analysis. Bipolar electrocardiogram (ECG) was generated using an isolated-heart ECG apparatus (Harvard Apparatus, Holliston, Mass.) attached to Biopac amplifier system. Coronary perfusion pressure was measured using a pressure transducer (Biopac or PowerLab pressure measuring system). […] All signals were saved on a computer hard disk for subsequent analysis.
Original MAP profiles of 3-5 consecutive beats were superimposed to get one average signal using computer software (Biopac, Goleta, Calif.) and then transferred into Microsoft Excel software and plotted to measure the duration of the MAP at the level at which repolarization is 90% completed (MAPD90).

The mark [2] stands for this setting: paced at 1 Hz, site not stated, read-out: EC50 to prolong LV MAPD90.

Molecules are shown by their SMILES. Where “and” joins values, the source holds several entries; their conditions need not be identical. Equal values may be shown once. Read-outs that look alike come from different tables or passages of the source. Where only a bound is given, the exact number is not on record here.

For `COc1ccccc1OCC(O)CN1CCN(CC(=O)Nc2c(C)cccc2C)CC1` (racemic) [ranolazine, (±)-N-(2,6-dimethylphenyl)-4-[2-hydroxy-3-(2-methoxyphenoxy)propyl]-1-piperazine-acetamide], the “insulin levels relative to baseline during IVGTT, compared to vehicle treated rats” value in the data set with normal SD rats is on record as “higher”. The Ki on β1-adrenergic receptors turned out to be 8.6 µM; on β2-adrenergic receptors, 14.8 µM. The values for the Kb at β1-ARs and at β2-ARs were 9.7 µM and 12.2 µM, respectively. Also, the “regional MAPD dispersion and PVBs or VT” value in data set [1] (1-100 μM) was “without increasing regional MAPD dispersion or eliciting premature ventricular beats (PVBs) or ventricular tachycardia (VT)”. The EC50 is 4.8 µM in data set [1] (paced at 1 Hz, read-out: EC50 to prolong LV MAPD90 (Apex)) and 4.3 µM in data set [1] (paced at 1 Hz, read-out: EC50 to prolong LV MAPD90 (Base)). Also, the “induction of EADs, PVBs or VT” value in data set [1] (at any concentration) was “did not induce any EADs, PVBs or VT”. For the same compound, in data set [1] (paced at 1 Hz, 30-100 μmol/L), the “maximal increase of apical MAPD90 above control” value is 35±4% and 35.2±4.1%. In data set [1] (paced at 1 Hz, 30-100 μmol/L), the “maximal increase of basal MAPD90 above control” value was 32±4% and 32.2±4.2%.
For the compound `COc1ccccc1OC[C@H](O)CN1CCN(CC(=O)Nc2c(C)cccc2C)CC1` [R-ranolazine, (R)-(+)-N-(2,6-dimethylphenyl)-4-[2-hydroxy-3-(2-methoxyphenoxy)-propyl]-1-piperazineacetamide], the “insulin levels relative to baseline during IVGTT, compared to vehicle treated rats” value in the data set with normal SD rats is reported as “higher”. Moreover, the Ki was greater than 100 µM at β1-adrenergic receptors and 39 µM on β2-adrenergic receptors. The Kb on β1-ARs and on β2-ARs was greater than 50 µM each time. The EC50 in data set [1] (setting [2]) is 6.4 µM. In addition, in data set [1] (paced at 1 Hz, site not stated), the “maximal increase of MAPD90” value stood at 22±5%.
`COc1ccccc1OC[C@@H](O)CN1CCN(CC(=O)Nc2c(C)cccc2C)CC1` [S-ranolazine, (S)-(−)-N-(2,6-dimethylphenyl)-4-[2-hydroxy-3-(2-methoxyphenoxy)-propyl]-1-piperazineacetamide]: the “insulin levels relative to baseline during IVGTT, compared to vehicle treated rats” value in the data set on normal SD rats is listed as “not different from the vehicle treated rats”. Moreover, the Ki on β1-adrenergic receptors came to 4.8 µM; at β2-adrenergic receptors, 6.7 µM. The Kb was 8 µM on β1-ARs and 9 µM on β2-ARs. Further, the EC50 in data set [1] (setting [2]) came to 5.9 µM. The “maximal increase of MAPD90” value in data set [1] (paced at 1 Hz, site not stated) is given as 28±4%.
